What all share (assay type): cell-based, human
Experiment [1] deals with HL60 cells. The experiment is described as follows: Western blot time course of apoptotic proteins in HL60 cells. As to the method:
(§1) Protein analyses were performed by Western blot in several sets of assays: expression pattern of CBs-receptors in AML cell lines and primary cells, and time course after treatment with cannabinoids in AML cell lines.
(§2) Cells were solubilized with ice-cold lysis buffer containing 2% ASB-14 (CalbioChem, San Diego, Calif., USA), 1% Nonidet P-40 (Ipegal®), 137 mM NaCl, 20 mM Tris-HCl pH 7.5 at 4° C. (all from Sigma-Aldrich), 2 mM Na3VO4, 20 mM NaF (New England BioLabs Inc., Ipswich, Mass., USA), 2 mM DTT (AppliChem, Darmstadt, Germany), protease inhibitor cocktail (Roche Diagnostics GmbH, Mannheim, Germany), and 10 ul Nuclease Mix (Amersham GE Healthcare, Uppsala, Sweden). Insoluble materials were removed by centrifugation at 13,000×g for 15 min at 4° C. Protein content was determined by Pierce® Microplate BCA Protein Assay kit-Reducing Agent Compatible (Thermo Fisher Scientific).
(§3) Extracted proteins (15-25 ug/well) were separated by sodium dodecyl sulfate-polyacrylamide gel electrophoresis (SDS/PAGE) in pre-cast polyacrylamide gels AnykD (Bio-Rad Laboratories, Hercules, Calif., USA) under reducing and denaturing conditions. Electrophoretic run was performed at a constant current of 15 mA per gel in a Mini-Protean® Tetra Cell (Bio-Rad Laboratories) and were electrophoretically transferred onto PVDF membranes using Trans-Blot® Turbo™ System (Bio-Rad Laboratories). Blocking was performed with 2% bovine serum albumin [(BSA), Santa Cruz Biotechnology] in Tween-Tris buffer saline (TTBS). Membranes were incubated overnight at 4° C. with corresponding primary antibody in TTBS.
(§4) Detection was performed using Western Blotting Luminol Reagent (Santa Cruz Biotechnology).
As in the case of MM cells, the antiproliferative effect of cannabinoids in AML is mediated by apoptotic mechanisms. […] Next, we evaluated Casp-3 activation using an antibody that recognizes the active forms of Casp-3, this is, the […]. […]

In experiment [2] the test system is U266 cells. The experiment in a line: Mitochondrial transmembrane potential (TMRE assay) in U266 cells. As to the method: The loss of mitochondrial transmembrane potential (Δψm), a marker of early apoptotic events, was determined by staining with TRME [(tetramethylrhodamine-ethyl-ester-perchlorate), Santa Cruz Biotechnology Inc.]. TMRE is a cell-permeable dye that becomes fluorescent once it is inside the mitochondria and, it can be detected using a fluorescent plate reader (Tecan). Briefly, cells (10e6 cells per assay) were treated with different concentrations of WIN-55 in presence or absence of SPT-inhibitor for 15, 30, 45 and 60 min at 37° C. After washing twice, cells were incubated for 20 min at 37° C. in the dark with 1 uM TMRE. The fluorescent intensity was read in the plate reader with excitation and emission wavelengths set at 485 and 538 nm respectively for red fluorescence. For each condition, triplicate samples (at least five times) were run, fluorescent readings were corrected for background. In all assays, CCCP (2-[2-(3-Chlorophenyl) hydrazinylyidene] propanedinitrile, a potent mitochondrial uncoupler, was used as a positive control of mitochondrial potential status.
The early loss of mitochondrial-membrane potential induced by cannabinoids. To delve into the processes that participate in cannabinoid-induced apoptosis, finally we tested whether the cannabinoid treatment induces changes on Δψm in myelomatous cells. We observed that cannabinoids induced a drop of Δψm in U266 cells (FIG. 10). […]

Experiment [3] has as its system U266 cells. The experiment is described as follows: Western blot of ER-stress regulator proteins in U266 cells. As to conditions: U266, WIN-55 50 uM. Here is the method:
Samples (15-25 ug/lane) were subjected to SDS/PAGE in pre-cast polyacrylamide gels AnykD (Bio-Rad Laboratories, Hercules, CA, USA) under reducing and denaturing conditions. Electrophoretic run was performed at a constant current of 15 mA per gel in a Mini-Protean® Tetra Cell (Bio-Rad Laboratories). Once proteins were separated by electrophoresis, were transferred onto PVDF membranes using Trans-Blot® Turbo™ System (Bio-Rad Laboratories). Electrotransference was conducted at constant amperage of 1.2 mA and at up to 25 V of voltage. The blotted membranes were then blocked with 2% bovine serum albumin [(BSA), Santa Cruz Biotechnology] in Tween-Tris buffer saline (TTBS) for 30 min with gentle agitation, and incubated overnight at 4° C. with corresponding primary antibody in TTBS. After twice washing with TTBS, membranes were incubated for 1-2 h at room temperature with suitable conjugated-HRP secondary antibody, and subjected to chemiluminescence detection using Western Blotting Luminol Reagent (Santa Cruz Biotechnology). Loading controls were carried out with an anti-beta-actin and anti-beta-tubulin antibodies (Sigma-Aldrich). […]
Cannabinoids attenuate the response to ER-stress in myelomatous cells. […] To test the effect of cannabinoids on ER-stress we analyzed the expression profile of ER-stress related proteins in myelomatous cells.

The subject of experiment [4] is HL60 cells. The experiment in a line: Western blot of signaling pathways (MAPKs, Akt) in HL60 cells. As to the method:
as §1, §2, §3, §4
Signaling pathways targeted by cannabinoids in leukemic cells. To get further insights into the mechanisms of cannabinoids-induced apoptosis, we assessed the expression profile of phosphorylated-JNK, -Erk1/2, -p38 MAPK and -Akt by Western blot.
(In general: Immunoblotting shows a protein as a band on a membrane.)

These results are taken from patent US20180353461A1, “USE OF CANNABINOIDS AS CERAMIDE-GENERATING ANTICANCER AGENTS IN TUMORS OF THE HEMATOPOIETIC AND LYMPHOID TISSUES” (priority 2014, published 2018).

As for `CS(=O)(=O)O.Cc1c(C(=O)c2cccc3ccccc23)c2cccc3c2n1[C@H](CN1CCOCC1)CO3` [WIN-55, (R)-(+)-[2,3-dihydro-5-methyl-3-(4-morpholinylmethyl)-pyrrolo-[1,2,3]-1,4-benzoxazin-6-yl]-1-naphthalenylmethanone mesylate], the “full-length PARP” value in the experiment on HL60 cells [1] (HL60, WIN-55 50 uM, time course) is recorded as “decrease”. Further, in the experiment on HL60 cells [1] (HL60, time course), the “85 kDa fragment of PARP” value was “increase” and the “expression of the active 12 kDa-cleaved form of Casp-3” value is recorded as “increased over time”. In addition, the “mitochondrial membrane potential (Δψm)” value with U266 cells [2] is reported as “early loss of potential of mitochondrial membrane”. The “response to ER-stress: expression of CHOP, ATF-4, p-IRE1” value with U266 cells [3] is listed as “attenuates the response to ER-stress”. Besides, the p-Erk1/2 result in the experiment on HL60 cells [4] (HL60, WIN-55 50 uM) is on record as “slightly up-regulated”. Moreover, in the experiment with HL60 cells [4] (HL60, time-dependent), the p-Akt result is reported as “significantly downregulated” and the “p-p38 MAPK” value is listed as “moderately downregulated”.
